The text below walks through data of ChEMBL document CHEMBL3758122, “Multitarget opioid ligands in pain relief: New players in an old game” (Eur J Med Chem, 2016).

The target of series [1] is T1, Delta-type opioid receptor (Homo sapiens, UniProt P41143). As to the kind of experiment: Binding affinity at delta opioid receptor (unknown origin).
The target of series [2] is T2, Mu-type opioid receptor (Homo sapiens, UniProt P35372). As to the kind of experiment: Binding affinity at mu opioid receptor (unknown origin).
Series [3] has as its target T3, Kappa-type opioid receptor (Homo sapiens, UniProt P41145). As to the kind of experiment: Binding affinity to kappa opioid receptor (unknown origin).
The test system of series [4] is Mus musculus. Kind of series: Antinociceptive activity in icv dosed mouse after 20 mins by tail flick test. Format: functional.
The target of series [5] is T3, Kappa-type opioid receptor. Kind of series: Agonist activity at human kappa opioid receptor expressed in CHO cell membrane by [35S]GTP-gammaS binding assay.
In series [6] the target is Mu-type opioid receptor (Rattus norvegicus, UniProt P33535). Kind of series: (§1) Agonist activity at rat mu opioid receptor transfected in C6 cells by [35S]GTPgammaS binding assay. Format: functional, cell-based. (In general: Binding of GTPγS marks nucleotide exchange on a G protein.)
Series [7] has as its target Delta-type opioid receptor (Rattus norvegicus, UniProt P33533). As to the kind of experiment: (§2) Agonist activity at rat delta opioid receptor transfected in C6 cells by [35S]GTPgammaS binding assay. It counts as functional, cell-based.
Series [8] concerns the target Mu-type opioid receptor (Rattus norvegicus) (UniProt P33535). The description is as §1. It counts as functional, cell-based.
In series [9] the target is Delta-type opioid receptor (Rattus norvegicus) (UniProt P33533). The series is described as §2. It counts as functional, cell-based.
In series [10] the target is Delta-type opioid receptor (Mus musculus, UniProt P32300). As to the kind of experiment: Agonist activity at delta-opioid receptor in mouse vas deferens. Format: tissue-based.
Series [11] addresses T1, Delta-type opioid receptor. Kind of series: Agonist activity at human delta-opioid receptor expressed in CHO cells by [35S]GTPgammaS binding assay. Format: functional, cell-based.
The target of series [12] is T2, Mu-type opioid receptor. Kind of series: Displacement of [3H]D-Ala2,N-Me-Phe4,Gly5-ol]-Enkephalin from human mu opioid receptor expressed in CHO cell membrane. Format: cell membranes. A general note: Loss of bound radioactivity is the signal in a displacement assay; it reports binding, not function.
Series [13] has as its target T2, Mu-type opioid receptor. As to the kind of experiment: Partial agonist activity at mu opioid receptor (unknown origin) expressed in CHO cell membrane assessed as stimulation of [35S]GTP-gamma-S binding. Format: cell membranes.
In series [14] the target is T3, Kappa-type opioid receptor. Kind of series: Displacement of [3H]U69,593 from human kappa opioid receptor expressed in CHO cell membrane. Format: cell membranes.
Series [15] has as its system Mus musculus. Kind of series: Toxicity in sc dosed Kunming mouse assessed as sedation by rotarod test. Format: organism-based. Particulars: in vivo. For orientation: In the rotarod test animals must keep their balance on a rotating rod.
Series [16] deals with Mus musculus. Kind of series: Antinociceptive activity in sc dosed Kunming mouse measured after 30 mins by hot plate test. It counts as functional. Particulars: 0.5 h.
Series [17] addresses T1, Delta-type opioid receptor. As to the kind of experiment: Antagonist activity at human delta opioid receptor expressed in CHO cell membrane assessed as inhibition of DPDPE-induced [35S]-GTP-gammaS binding. Format: cell membranes.

Starred links: 1 amine or outer side, 2 acyl side, 3 side chain; linkers in the order of their positions; H or OH if unused. Positions of bridges follow the written chain, without caps; N, C: chain ends. Non-standard residues stand in square brackets, D forms with d. Residues, ends and D or L forms follow the SMILES beside them. *: point of attachment. Dmt = Cc1cc(O)cc(C)c1C[C@H](N)C(=O)O; Tic = O=C(O)[C@@H]1Cc2ccccc2CN1; dTic = O=C(O)[C@H]1Cc2ccccc2CN1; NHBn = c1ccc(CN*)cc1; CH2 = C([*:1])[*:2]; NHPh = c1ccc(N*)cc1

T2 sequence (P35372 whole entry): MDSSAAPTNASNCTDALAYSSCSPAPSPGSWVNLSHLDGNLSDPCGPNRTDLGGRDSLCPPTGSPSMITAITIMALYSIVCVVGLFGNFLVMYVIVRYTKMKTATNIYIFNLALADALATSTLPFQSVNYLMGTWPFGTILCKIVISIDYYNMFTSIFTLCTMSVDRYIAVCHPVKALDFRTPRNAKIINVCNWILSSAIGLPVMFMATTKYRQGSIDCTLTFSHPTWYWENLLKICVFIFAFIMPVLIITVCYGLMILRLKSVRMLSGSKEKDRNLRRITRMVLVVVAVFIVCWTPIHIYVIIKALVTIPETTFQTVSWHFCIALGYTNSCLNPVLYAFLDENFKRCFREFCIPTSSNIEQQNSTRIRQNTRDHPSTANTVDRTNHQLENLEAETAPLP
T1 sequence (P41143 whole entry): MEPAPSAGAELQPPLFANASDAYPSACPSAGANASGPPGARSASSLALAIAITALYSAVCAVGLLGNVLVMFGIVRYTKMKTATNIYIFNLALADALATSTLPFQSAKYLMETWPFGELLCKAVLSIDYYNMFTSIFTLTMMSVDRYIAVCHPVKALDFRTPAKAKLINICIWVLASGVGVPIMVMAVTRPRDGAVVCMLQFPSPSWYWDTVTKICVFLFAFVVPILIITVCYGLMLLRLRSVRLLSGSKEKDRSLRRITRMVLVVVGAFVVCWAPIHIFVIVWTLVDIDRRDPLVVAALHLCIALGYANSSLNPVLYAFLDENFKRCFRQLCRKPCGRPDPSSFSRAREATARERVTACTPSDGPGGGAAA
T3 sequence (P41145 whole entry): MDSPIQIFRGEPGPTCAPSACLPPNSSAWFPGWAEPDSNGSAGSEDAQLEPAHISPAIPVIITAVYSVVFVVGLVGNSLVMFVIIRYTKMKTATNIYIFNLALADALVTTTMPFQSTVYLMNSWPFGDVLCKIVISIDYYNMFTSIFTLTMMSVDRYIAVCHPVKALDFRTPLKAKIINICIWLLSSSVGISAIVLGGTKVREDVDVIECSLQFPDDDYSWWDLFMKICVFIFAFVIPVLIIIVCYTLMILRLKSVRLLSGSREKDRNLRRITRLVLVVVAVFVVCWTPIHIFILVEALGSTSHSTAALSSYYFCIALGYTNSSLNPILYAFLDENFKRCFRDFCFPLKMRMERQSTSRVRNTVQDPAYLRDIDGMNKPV
Sequence of Mu-type opioid receptor (Rattus norvegicus, UniProt P33535) (P33535 whole entry): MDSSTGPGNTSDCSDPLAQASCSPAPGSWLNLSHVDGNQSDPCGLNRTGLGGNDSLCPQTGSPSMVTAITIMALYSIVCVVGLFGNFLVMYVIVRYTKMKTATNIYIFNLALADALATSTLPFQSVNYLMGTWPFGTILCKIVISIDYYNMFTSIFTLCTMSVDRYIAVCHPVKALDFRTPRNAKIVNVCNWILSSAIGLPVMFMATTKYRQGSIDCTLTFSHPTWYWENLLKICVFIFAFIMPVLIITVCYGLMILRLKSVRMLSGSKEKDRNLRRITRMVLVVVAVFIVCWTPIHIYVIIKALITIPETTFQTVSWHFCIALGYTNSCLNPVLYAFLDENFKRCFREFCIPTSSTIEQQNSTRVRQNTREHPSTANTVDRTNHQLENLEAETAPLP
Sequence of Mu-type opioid receptor (Rattus norvegicus) (P33535 whole entry): as above
Sequence of Delta-type opioid receptor (Rattus norvegicus, UniProt P33533) (P33533 whole entry): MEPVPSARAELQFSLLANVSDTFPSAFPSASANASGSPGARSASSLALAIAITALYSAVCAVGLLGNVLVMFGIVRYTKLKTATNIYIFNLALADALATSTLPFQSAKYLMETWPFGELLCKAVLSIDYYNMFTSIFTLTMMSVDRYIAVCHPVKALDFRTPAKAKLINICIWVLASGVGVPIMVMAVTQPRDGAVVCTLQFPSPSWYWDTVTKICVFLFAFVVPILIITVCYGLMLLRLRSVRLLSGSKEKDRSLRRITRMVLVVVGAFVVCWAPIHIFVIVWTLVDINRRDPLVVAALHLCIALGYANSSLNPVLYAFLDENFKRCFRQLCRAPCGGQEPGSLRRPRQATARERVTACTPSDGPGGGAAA
Sequence of Delta-type opioid receptor (Rattus norvegicus) (P33533 whole entry): as above
Sequence of Delta-type opioid receptor (Mus musculus, UniProt P32300) (P32300 whole entry): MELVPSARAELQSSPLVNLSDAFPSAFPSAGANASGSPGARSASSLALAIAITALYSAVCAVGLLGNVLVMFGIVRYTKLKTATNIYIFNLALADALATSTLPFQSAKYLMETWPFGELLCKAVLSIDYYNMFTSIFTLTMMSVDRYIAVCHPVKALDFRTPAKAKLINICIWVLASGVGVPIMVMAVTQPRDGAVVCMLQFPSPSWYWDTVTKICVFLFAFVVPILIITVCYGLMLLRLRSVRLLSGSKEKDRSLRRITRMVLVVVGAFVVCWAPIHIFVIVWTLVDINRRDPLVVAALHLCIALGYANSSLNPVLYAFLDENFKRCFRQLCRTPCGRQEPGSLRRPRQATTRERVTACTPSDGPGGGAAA

As for `Cc1cc(O)cc(C)c1C[C@H](N)C(=O)N1Cc2ccccc2C[C@H]1CN[C@@H](Cc1ccccc1)C(=O)N[C@@H](Cc1ccccc1)C(N)=O`, the inhibition constant Ki (as a rule, a measure of affinity in units of concentration, obtained from inhibition or displacement) in series [1] is 0.44 nM; on Mu-type opioid receptor [2], 0.94 nM.
Turning to `NC(=O)[C@@H]1CSCSC[C@@H](NC(=O)[C@@H](N)Cc2ccc(O)cc2)C(=O)N[C@@H](Cc2ccccc2)C(=O)N[C@@H](Cc2ccccc2)C(=O)N1` (H-Y[dC]FFC-NH2; linker 2-5 via CH2), the Ki was 1.8 nM in [1] and 0.016 nM on Mu-type opioid receptor [2].
In the case of `O=C1c2ccc(O)cc2[C@@]23CCCC[C@H]2[C@@H]1N(CC1CCCO1)CC3` (stereo not given in full), the Ki in series [1] was determined as 1 nM; in series [3], 0.18 nM; at Mu-type opioid receptor [2] it was 0.38 nM.
Consider `O=C(/C=C/C(=O)Oc1ccc2c(c1)[C@@]13CCCC[C@H]1[C@@H](C2)N(CC1CCC1)CC3)Oc1ccc2c(c1)[C@@]13CCCC[C@H]1[C@@H](C2)N(CC1CCC1)CC3`, for which the ED50 with Mus musculus [4] is reported as 0.27 nmol. Moreover, the EC50 (in general, the concentration needed to bring the measured effect to its halfway point) in series [5] came out at 4.3 nM.
`Cc1cc(O)cc(C)c1C[C@H](N)C(=O)N1Cc2ccccc2C[C@H]1C(=O)NCC(=O)Nc1ccccc1` (H-[Dmt]-[Tic]-Gly-NHPh): the inhibition constant Ki in series [1] came out at 0.16 nM; on Mu-type opioid receptor [2], 0.042 nM.
With `CCCC[C@@H]1NC(=O)[C@H](Cc2cccc3ccccc23)NC(=O)[C@H](NC(=O)[C@@H](N)Cc2ccc(O)cc2)CSSC[C@@H](C(=O)O)NC1=O`, the EC50 at Mu-type opioid receptor [6] came out at 5.1 nM; in series [7], 22 nM.
As to `CCCC[C@@H]1NC(=O)[C@H](Cc2cccc3ccccc23)NC(=O)[C@@H](NC(=O)[C@@H](N)Cc2ccc(O)cc2)CSSC[C@H](C(=O)O)NC1=O`, the maximum response (Emax) in series [8] and in [9] was 100% throughout.
With `O=C(CCCCCCCCC(=O)Oc1ccc2c(c1)[C@@]13CCCC[C@H]1[C@@H](C2)N(CC1CCC1)CC3)Oc1ccc2c(c1)[C@@]13CCCC[C@H]1[C@@H](C2)N(CC1CCC1)CC3`, the ED50 with Mus musculus [4] is on record as 3 nmol.
As to `Oc1ccc2c(c1)[C@@]13CCCC[C@H]1[C@@H](C2)N(CC1CCC1)CC3` [BUTORPHAN], the affinity in [3] corresponds to a Ki of 0.073 nM.
Take `CO[C@@]12CCC(=O)[C@]3(C)Oc4c(O)ccc5c4[C@@]31CCN(C)[C@@H]2C5`: the inhibition constant (Ki) was 13.3 nM in series [1], 25.2 nM in series [3] and 0.01 nM at Mu-type opioid receptor [2].
`Cc1cc(O)cc(C)c1C[C@H](N)C(=O)N1Cc2ccccc2C[C@@H]1C(=O)NCc1nc2ccccc2[nH]1`: the results for the Ki (in [1]; at Mu-type opioid receptor [2]) were 0.021 nM and 0.5 nM, respectively. Also, the EC50 in [10] is 0.02 nM; in [11], 0.0813 nM.
Consider `Nc1nc2cc3c(cc2s1)CC1[C@@H]2CCCC[C@]32CCN1CC1CC1`, for which the inhibitory constant (Ki) at Mu-type opioid receptor [12] came to 1.5 nM; in [14], 0.049 nM. Moreover, on Mu-type opioid receptor [13], the concentration giving a half-maximal response (EC50) was 73 nM. Also, the results for the ED50 in the series with Mus musculus [15] and in the series with Mus musculus [16] were 1.94 mg/kg and 1.46 mg/kg, respectively.
With `Cc1cc(O)cc(C)c1C[C@H](N)C(=O)N1Cc2ccccc2C[C@@H]1C(=O)NCC(=O)NCc1ccccc1` (H-[Dmt]-[dTic]-Gly-NHBn), in series [17], the negative logarithm of the Kb (pKb) (in general, −log10 of the Kb, conventionally taken in molar units) turned out to be 9.81.
